Source: patent US20050239720A1, “Combination of an agent that attenuates topoisomerase 1 activity and an agent that inhibits heat shock protein 90 for use in chemotherapy” (UNIVERSITY OF LIVERPOOL Senate House, priority 2002, published 2005)

Tested on: HCT116 p53 WT cells and p53 KO cells
Assay: Growth inhibition assay (sulforhodamine B)
Type: cell-based, human
Conditions: single drug alone; HCT116 p53 WT and p53 knockout cells; FIG. 4 and FIG. 5
Protocol: The isogenic p53 human colon cancer cell line (WT and KO), HCT116 (see Hwang et al. Nat Med 2001 November 7(11):1255). Cells were maintained in McCoys 5A medium (Sigma) supplemented with 10% foetal calf serum (Gibco) at 37° C. in a 5% CO2 enriched humidified environment, Penicillin and Streptomycin. 96 well flat-bottomed plates were seeded with 3×10^3 cells per well and allowed to adhere overnight. Media was then replaced with fresh media alone (control) or containing test drugs e.g. 0-100 μM irinotecan, 50 to 200 nM geldanamycin (GA) and combinations of both. At fixed time points, cells were fixed with 3:1 methanol:acetic acid and stained with 0.4% w/v sulforhodamine B (Sigma) in 1% v/v acetic acid for 30 minutes. Plates were then washed twice with 1% v/v acetic acid, the dye solubilised with 100 μl per well of 10 mM Tris pH 10.4 and read at […] using a Benchmark microplate reader (BioRad). Drugs were used in the following concentrations for Growth inhibition and Clonogenic assays: [table]

`COC1=C2C[C@@H](C)C[C@H](OC)[C@H](O)[C@@H](C)/C=C(\C)[C@H](OC(N)=O)[C@@H](OC)/C=C\C=C(/C)C(=O)NC(=CC1=O)C2=O` [Geldanamycin] was tested, and the “effect on cell growth” value was “inhibitory effects”.
`CCc1c2c(nc3ccc(OC(=O)N4CCC(N5CCCCC5)CC4)cc13)-c1cc3c(c(=O)n1C2)COC(=O)[C@]3(O)CC` [Irinotecan] was tested, and the “effect on cell growth” value was “inhibitory effects”.
